Test systems include A498 renal; CAKI-1 renal; CCRF-CEM leukemia; HCT-15 colon; HT29 colon; K-562 leukemia; KM12 colon; MDA-N; NCI-H460 lung; OVCAR-5 ovarian; PC-3 prostate; SK-MEL-2 melanoma; SK-OV-3 ovarian; SN12C renal; SNB-75 CNS; TK-10 renal; UACC-62 melanoma.
Assay in all cases: inhibition of tumour cell growth, NCI panel, 48 h

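Step 1: Grow cells in 96-well plates. Step 2: Expose to compound for 48 hours at 5 concentrations. Step 3: Interpolate endpoints linearly; if unreached, use highest concentration. The concentration for full growth arrest is given as TGI.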 Bounds are passed on as bounds.

`O=C(O)c1cc2c(cc1S(=O)(=O)O)C1C(C3C2C2(Cl)C(Cl)=C(Cl)C3(Cl)C2(Cl)Cl)C2(Cl)C(Cl)=C(Cl)C1(Cl)C2(Cl)Cl` (stereo unspecified): the TGI in the test on A498 renal is > 100 µM; with CAKI-1 renal, > 100 µM; in the test on CCRF-CEM leukemia, 37.3 µM; in the test with HCT-15 colon it was > 100 µM; with HT29 colon it was 48 µM; with K-562 leukemia, > 100 µM. Also, the TGI with KM12 colon is > 100 µM; with MDA-N, > 100 µM; in the test on NCI-H460 lung, > 100 µM; in the test with OVCAR-5 ovarian, 70 µM; in the test on PC-3 prostate it was > 100 µM; in the test with SK-MEL-2 melanoma, 73.4 µM. The TGI in the test on SK-OV-3 ovarian is > 100 µM; in the test on SN12C renal it was 46.4 µM; with SNB-75 CNS it was > 100 µM; in the test with TK-10 renal it was > 100 µM; in the test on UACC-62 melanoma, 46.9 µM.
For the compound `NNC(=O)CCCCCCCC(=O)O`, the TGI in the test on A498 renal, in the test with CAKI-1 renal, in the test with CCRF-CEM leukemia, in the test with HCT-15 colon, with HT29 colon and with K-562 leukemia was > 100 µM each time. The TGI with KM12 colon, in the test with MDA-N, with NCI-H460 lung, with OVCAR-5 ovarian, with PC-3 prostate and in the test on SK-MEL-2 melanoma was > 100 µM in each case. In addition, the TGI with SK-OV-3 ovarian, in the test on SN12C renal, in the test with SNB-75 CNS, in the test on TK-10 renal and in the test with UACC-62 melanoma was > 100 µM throughout.
On to `O=C1NC(N/N=C/C(O)C(O)C(O)C(O)CO)=N/C1=C\c1cccs1` (stereo unspecified), for which the TGI with A498 renal, in the test on CAKI-1 renal, in the test with CCRF-CEM leukemia, with HCT-15 colon, in the test on HT29 colon and with K-562 leukemia was > 100 µM throughout. Also, the TGI with KM12 colon, in the test with MDA-N, with NCI-H460 lung, with OVCAR-5 ovarian, with PC-3 prostate and in the test with SK-MEL-2 melanoma was > 100 µM throughout. Also, the TGI in the test on SK-OV-3 ovarian, with SN12C renal, in the test on SNB-75 CNS, with TK-10 renal and in the test with UACC-62 melanoma was > 100 µM throughout.
`COC(=O)c1ccc(NCC2=CC(=O)c3ccccc3C2=O)cc1`: the TGI in the test on A498 renal was 54.2 µM; in the test on CAKI-1 renal it was 28 µM; with CCRF-CEM leukemia it was > 100 µM; with HCT-15 colon, 33.1 µM; in the test with HT29 colon, > 76.4 µM; in the test with K-562 leukemia, 32.2 µM. For the same compound, the TGI in the test on KM12 colon came to 33 µM; with MDA-N it was 26.6 µM; with NCI-H460 lung it was 35.6 µM; in the test with OVCAR-5 ovarian it was 49.5 µM; in the test with PC-3 prostate, 27.8 µM; in the test on SK-MEL-2 melanoma, 42.2 µM. The TGI was determined as 35.3 µM in the test with SK-OV-3 ovarian; 59.3 µM with SN12C renal; 46.8 µM with SNB-75 CNS; 37.1 µM with TK-10 renal; 27.6 µM in the test on UACC-62 melanoma.
Consider `O=[N+]([O-])/C(C(Cl)=C(Cl)Cl)=C(/Sc1ccccc1)N1CCOCC1`, for which the TGI with A498 renal was determined as 28.1 µM; in the test on CAKI-1 renal, 13 µM; with CCRF-CEM leukemia it was 4.66 µM; in the test on HCT-15 colon, 10.9 µM; in the test with HT29 colon, 26.2 µM; in the test with K-562 leukemia, 3.89 µM. For the same compound, the TGI stood at 32.7 µM in the test on KM12 colon; 14.6 µM in the test on MDA-N; 27.1 µM with NCI-H460 lung; 31 µM in the test on OVCAR-5 ovarian; 14.8 µM in the test with PC-3 prostate; 18.1 µM in the test with SK-MEL-2 melanoma. Also, the TGI in the test with SK-OV-3 ovarian came to 79.8 µM; in the test on SN12C renal it was 19.3 µM; in the test on SNB-75 CNS, 24.4 µM; with TK-10 renal, 18.3 µM; with UACC-62 melanoma, 14 µM.
In the case of `c1ccc(-c2cc(-c3cc(-c4ccccc4)n[nH]3)[nH]n2)cc1`, the TGI in the test on A498 renal, in the test with CAKI-1 renal, with CCRF-CEM leukemia, in the test on HCT-15 colon, in the test with HT29 colon and in the test with K-562 leukemia was > 100 µM in each case. For the same compound, the TGI in the test on KM12 colon, in the test with MDA-N, in the test on NCI-H460 lung, in the test with OVCAR-5 ovarian, in the test with PC-3 prostate and in the test on SK-MEL-2 melanoma was > 100 µM each time. In addition, the TGI with SK-OV-3 ovarian, in the test with SN12C renal, in the test on SNB-75 CNS, with TK-10 renal and in the test on UACC-62 melanoma was > 100 µM throughout.
For `Cc1[nH]n(-c2nc(O)c(C)c(=O)[nH]2)c(=O)c1CCO`, the TGI in the test on A498 renal, with CAKI-1 renal, in the test on CCRF-CEM leukemia, in the test with HCT-15 colon, with HT29 colon and in the test on K-562 leukemia was > 100 µM throughout. Moreover, the TGI with KM12 colon, with MDA-N, in the test with NCI-H460 lung, with OVCAR-5 ovarian, in the test on PC-3 prostate and in the test with SK-MEL-2 melanoma was > 100 µM in each case. The TGI with SK-OV-3 ovarian, with SN12C renal, in the test on SNB-75 CNS, in the test on TK-10 renal and with UACC-62 melanoma was > 100 µM in each case.
Regarding `Cc1ccc(NNc2cc(=O)[nH]c(=O)[nH]2)cc1Cl`, the TGI in the test with A498 renal is > 100 µM; with CAKI-1 renal, 28.4 µM; with CCRF-CEM leukemia, 62.4 µM; in the test on HCT-15 colon it was 22.7 µM; with HT29 colon, 28.7 µM; with K-562 leukemia, > 100 µM. Further, the TGI in the test on KM12 colon is > 100 µM; in the test with MDA-N it was 28.6 µM; in the test with NCI-H460 lung, > 100 µM; in the test on OVCAR-5 ovarian, > 100 µM; with PC-3 prostate it was > 100 µM; with SK-MEL-2 melanoma it was 30.9 µM. Besides, the TGI in the test on SK-OV-3 ovarian is > 100 µM; in the test with SN12C renal, > 100 µM; in the test on SNB-75 CNS it was > 100 µM; in the test on TK-10 renal, 33.1 µM; with UACC-62 melanoma, > 100 µM.

Source of the values: PubChem BioAssay (NCI).
